Earlier results as cited in the CATMoS acute toxicity set (Mansouri et al. 2021).
Where “and” joins values, the source holds several entries; their conditions need not be identical. Identical values can stand only once.

Test: rat acute oral toxicity
Details: in vivo
Source text: […]The data set underlying the modeling effort for this project was initially compiled by NICEATM and U.S. EPA’s CCTE. Briefly, LD50 data were collected from rat acute oral systemic toxicity tests, including limit tests, ranges/confidence intervals, and discrete LD50 values. The full data set included 21,200 LD50 entries for 15,688 substances. […] Data were reviewed to ensure that LD50 values with obvious errors in the extracted data such as unit conversion errors (e.g., comma and decimal separator misplacements) were either fixed or removed. After this review, 16,209 LD50 values remained. Many of the chemicals represented had multiple LD50 entries, requiring that a single representative value per Chemical Abstracts Service Registry Number (CASRN) identifier be defined to facilitate modeling efforts. Based on ATWG feedback and to define the representative LD50 as a protective value while accounting for the distribution across multiple LD50s, the median of the lowest quartile was computed using only discrete LD50 values (omitting limit test data and range and confidence interval data). A detailed summary of the data compilation is available online on the NICEATM webpage dedicated to the collaborative modeling project (NTP 2020).
[…][…] For categorical designations, limit test and range/confidence interval LD50 data were integrated wherever possible. As such, the number of chemicals with end point values/calls varies across the modeling end points (Table 3) based on whether chemicals had representative LD50 values and/or other data. If a chemical had both, the representative value was used to determine categorical calls rather than limit test data. Some data were useable only for certain end points and categories depending on the thresholds. For example, ranges that spanned multiple hazard categories were considered only for the binary (very toxic/nontoxic) end points and omitted from rendering a determination for hazard category assignment.
[…]The final data set comprising 11,992 chemicals was split into training and evaluation sets […], respectively. This process was performed semirandomly by ordering chemicals based on the five end points (categorical and continuous LD50 values) and partitioning every fourth record into the evaluation set accordingly. This approach was taken to ensure an equivalent distribution of the LD50 values and the different hazard categories between the training and the evaluation sets without supervised sampling of the chemicals based on structures (Figure 1A). The sources of the chemical structures were also kept equivalent between the two sets, with chemical structures obtained from DSSTox, being the highest quality, representing over 75% of each set (Figure 1B).

Row | Structure (SMILES) | LD50
1 | ClCCN(Cc1ccccc1)Cc1ccccc1 | 2400 mg/kg
2 | O=C1c2ccccc2C(=O)C1c1ccc(C(F)(F)F)cc1 | 198 mg/kg
3 | O=C1Nc2ccc(Cl)cc2C(c2ccccc2Cl)=NC1O (centres undefined) | 4500 mg/kg
4 | CCOP(=O)(OCC)SCc1ccccc1 | 660 mg/kg
5 | COP(=S)(OC)OC1C2(C)CCC(C2)C1(C)C (centres undefined) | 250 mg/kg
6 | COc1ccc2c(c1)c(CC(=O)NO)c(C)n2C(=O)c1ccc(Cl)cc1 | 78 mg/kg
7 | c1ccc2c3c([nH]c2c1)CCCC3 | 2650 mg/kg
8 | O=C(NC[P+](CO)(CO)CO)NC[P+](CO)(CO)CO | 245 mg/kg
9 | O=C(O)C1CCc2cc(C3CCCCC3)c(Cl)cc21 (centres undefined) | 41 mg/kg and 35 mg/kg
10 | CC(Cl)(CCl)C(=O)O (centres undefined) | 8000 mg/kg
11 | COP(=S)(OC)SCc1nc(=O)o[nH]1 | 10 mg/kg
12 | COc1ccc2c(c1)C(N1CCN(C)CC1)=Cc1ccccc1O2 | 822 mg/kg
13 | O=C(O)C(S)C(S)C(=O)O (centres undefined) | 4000 mg/kg
14 | CCCCOC(C)COC(=O)COc1cc(Cl)c(Cl)cc1Cl (centres undefined) | 500 mg/kg
15 | CC(C)/N=C(\N)NC(C)C | 2880 mg/kg
16 | CCCCCCCCCCOCCCN(C(=O)CC(C(=O)O)S(=O)(=O)O)C(CC(=O)OCC)C(=O)OCC (centres undefined) | 16200 mg/kg
17 | COCCOC(=O)CC#N | 4300 mg/kg
18 | CC(C)=CCO | 810 mg/kg
19 | O=C(C(Cl)Cl)C(Cl)(Cl)Cl | 200 mg/kg
20 | CCCN(CCC)S(=O)(=O)CCNC(=O)N(CCCl)N=O | 250 mg/kg
21 | O=NN(CCO)CCO | 7500 mg/kg
22 | Nc1ncc(C=Cc2ccc([N+](=O)[O-])o2)nn1 | 250 mg/kg

Row | Structure (SMILES) | LD50
23 | COP(=O)(OC)SCN1C(=O)c2ccccc2C1=O | 50 mg/kg
24 | CC(O)c1cc(N)cc(C(F)(F)F)c1 (centres undefined) | 880 mg/kg
25 | CC(=O)OCC1=CC[C@@H]2C[C@H]1C2(C)C | 2600 mg/kg
26 | CCSc1nc(NC(C)C)nc(NC(C)C)n1 | 3900 mg/kg
27 | Clc1sc(Cl)c(Cl)c1Cl | 70 mg/kg
28 | CC#CCC(C)[C@H](O)/C=C/[C@@H]1[C@H]2c3cccc(CCCC(=O)O)c3O[C@H]2C[C@H]1O (some centres undefined) | 12 mg/kg and 11.6 mg/kg
29 | O=C1CCCCC(=O)N1 | 22600 mg/kg
30 | O=c1cc[nH]c(=O)o1 | 850 mg/kg
31 | FC(F)(F)c1nc2c(Cl)cccc2[nH]1 | 19.2 mg/kg
32 | CCCC(=O)N(C)C(=O)Oc1cc(C)cc(C(C)C)c1 | 1220 mg/kg
33 | Fc1cccc(C(F)(F)F)n1 | 50 mg/kg
34 | Cc1ccn(CO)n1 | 1650 mg/kg
35 | CCSCc1ccccc1OC(=O)NC | 200 mg/kg
36 | O=C(OCCCl)c1ccccc1C(=O)OCCCl | 730 mg/kg
37 | CNC(=O)Oc1ccc(Cl)c2c1OC(C)(C)C2 | 248 mg/kg
38 | CCOC(=O)C1=CN(C(=O)c2ccccc2)C2CCCC(C)N2C1=O (centres undefined) | 1640 mg/kg
39 | CS(=O)(=O)OCCCN(CCCOS(C)(=O)=O)Cc1ccccc1 | 375 mg/kg
40 | C[N+](C)(C)CC[N+]1(C)Cc2c(Cl)c(Cl)c(Cl)c(Cl)c2C1 | 300 mg/kg
41 | Cc1cc(C)c(C(=O)Cl)c(C)c1 | 2300 mg/kg
42 | NS(=O)(=O)c1cc(C(=O)O)cc(N2CCCC2)c1Oc1ccccc1 | 5600 mg/kg
43 | c1ccc2c(c1)CCCC2 | 2860 mg/kg
44 | CCOP(=O)(OCC)N(SN(C)C(=O)ON=C(C)SC)C(C)C | 100 mg/kg

Row | Structure (SMILES) | LD50
45 | CCC(C)c1ccccc1 (centres undefined) | 2240 mg/kg
46 | CC(=O)O[C@H]1C[C@@H]2CC[C@@]1(C)C2(C)C | 9050 mg/kg
47 | FC(Cl)(C(Cl)(Cl)Cl)C(Cl)(Cl)Cl | 500 mg/kg
48 | CCCCCCCCC=CCCCCCCCC(=O)OCC1CO1 (centres undefined) | 3520 mg/kg
49 | CC1(C)C(C=C(Br)Br)C1C(=O)OC(C#N)c1cccc(Oc2ccccc2)c1 (centres undefined) | 80 mg/kg
50 | COC(=O)C1=C(C)NC(C)=C(C(=O)OC/C=C/c2ccccc2)C1c1cccc([N+](=O)[O-])c1 (centres undefined) | 2970 mg/kg
51 | CCN1CN(CC)CN(CC)C1 | 316 mg/kg
52 | CCOC(=O)C=CC(=O)OCC | 3200 mg/kg
53 | CCCCC(CC)COC(=O)CCCCCCCCCCC(=O)OCC(CC)CCCC (centres undefined) | 21500 mg/kg
54 | CCCCCC(C)NC (centres undefined) | 320 mg/kg
55 | CCCCCCCCCCCCSC#N | 1250 mg/kg
56 | NCCCn1ccnc1 | 1780 mg/kg
57 | COP(=S)(OC)SCn1nc(-c2ccccc2)ccc1=O | 18800 mg/kg
58 | CC(=O)C=Cc1ccccc1 | 2030 mg/kg
59 | C[N+]1(C)CCc2cc(Cl)ccc21 | 447 mg/kg
60 | COc1cc(C(=O)Oc2c(CCC(C)=O)c(=O)n(-c3ccccc3)n2-c2ccccc2)cc(OC)c1OC | 3000 mg/kg
61 | ClCc1cccc(Oc2ccccc2)c1 | 1220 mg/kg
62 | CCOc1ccc2c(c1)C(C)=CC(C)(C)N2 | 3580 mg/kg
63 | CC(C)=C1CCC(C)CC1=O (centres undefined) | 470 mg/kg
64 | CC(C)(CO)NCC(O)c1ccccc1 (centres undefined) | 2080 mg/kg
